Laboratory results reported in patent US20030073832A1, “Novel aminophenyl ketone derivatives” (priority 2001, published 2003).

How the values were obtained:
TNF-α = experiment: Inhibition of TNF-α secretion from LPS stimulated peripheral blood mononuclear cells; assay type: cell-based; details: PBMC; LPS stimulated human peripheral blood mononuclear cells, 18 hours, ELISA; read-out: The median inhibition concentration (IC50, nM) of TNF-α
Description: (§1) To study the effect of compounds of the present invention in vitro the inhibition of the IL-1β and TNF-α secretion was measured using the following procedure:
(§2) Cytokine production was measured in the media from lipopolysaccharide (LPS) stimulated peripheral blood mononuclear cells. The mononuclear cells were isolated from human peripheral blood by Lymphoprep® (Nycomed, Norway) fractionation and suspended in RPMI 1640 (growth medium) with foetal calf serum (FCS, 2%), at a concentration of 5×10^5 cells/ml. The cells were incubated in 24-well tissue culture plates in 1 ml aliquots. Test compounds were dissolved in dimethylsulfoxide (DMSO, 10 mM) and were diluted with the medium. Compounds were added to the cells for 30 minutes, then LPS ([…] final concentration) was added. The plates were incubated for 18 hours, and the concentration of IL-1β and TNF-α in the medium was determined by enzyme-linked immunosorbent assays. The median inhibitory concentrations (IC50) of the compounds were calculated.

PMN-superoxide = experiment: Inhibition of PMN superoxide secretion (ferricytochrome C reduction); assay type: cell-based; details: human PMN granulocytes primed with TNF-α, stimulated with fMLP; read-out: The median inhibition concentration (IC50, nM) of PMN-superoxide
Description: The compounds of the present invention also show similar activities in the ability to inhibit PMN (polymorphonuclear) superoxide secretion which is also indicative of potentially useful anti-inflammatory drugs. The compounds were tested using the following procedure:
Human polymorphonuclear (PMN) granulocytes were isolated from human blood by dextran sedimentation, Lymphoprep® fractionation and hypotonic lysis of contaminating erythrocytes.
Superoxide anion generation was measured as the superoxide dismutase inhibitable reduction of ferricytochrome C (Madhu, S.B. et al, Inflammation, 16, 241, (1992)). The cells were suspended in Hanks' balanced salt solution, and incubated for 10 minutes at 37° C. with test compounds. The cells were primed by the addition of TNF-α (3 ng/ml final concentration) for 10 minutes, and then ferricytochrome C, (final concentration 750 μg/ml), bovine serum albumin (BSA, final concentration 1 mg/ml) and formyl-methionyl-leucyl-phenylalanine (fMLP, final concentration 10^−7 M) were added for 3 minutes. The cells were chilled on ice, and were spun down. The optical densities in the cell-free supernatant was measured in a spectrophotometer. The median inhibitory concentration (IC50) of the compounds was calculated.

p38α MAP kinase = target: T1, p38α MAP kinase (Homo sapiens, UniProt Q16539); experiment: p38α MAP kinase assay; assay type: biochemical; details: immunoprecipitated activated FLAG-p38α from COS-1 cells, GST-ATF-2 substrate; read-out: p38 MAP kinase IC50
T1 construct: made in house; host or cells: COS-1 cells (transient co-transfection, anti-FLAG immunoprecipitation)
Description: COS-1 cells (derived from African green monkey kidney fibroblast-like cell containing wild-type T antigen under control of the SV40 promotor) were obtained from ATCC (ATCC no. CRL-1650) and grown in growth medium (DMEM without phenolred, 10% FCS, 2 mM L-glutamine, 100U penicillin and 100 μg streptomycin/ml) at 37° C. with 5% CO2. The cells were passaged twice a week by trypsination (0.25% trypsin, 1 mM EDTA in PBS) and were split 1:10. The medium was changed every second or third day. The cell line was regularly tested with the Mycoplasma PCR Primer Set (Stratagene) and found to be free of Mycoplasma. Tissue culture media, FCS, L-glutamine and penicilin and streptomycin are from Bribco BRL, Gaithersburg, Md., USA.
Transient Expression of COS-1 Cells
On day one COS-1 cells were seeded in 143 cm^2 petridish with a density of 2×10^4celler/cm^2 in growth medium. At day 2 the cells were co-transfected with 5 μg (total) of experimental plasmid DNA, expressing the FLAG-p38α and FLAG-MKK6(EE). The plasmids were introduced into the COS-1 cells in serum-free medium using DOTAP™ (Boehringer-Mannheim, Mannheim, Germany). Plasmid DNA was prepared and purified using the QIAGEN EndoToxin-free Maxiprep-500 kit (Hilden, Germany). Briefly, DNA and DOTAP™ were mixed for exactly 15 min. at 37° C. in the CO2 incubator. […]

IL-1β = experiment: Inhibition of IL-1β secretion from LPS stimulated peripheral blood mononuclear cells; assay type: cell-based; details: PBMC; LPS stimulated human peripheral blood mononuclear cells, 18 hours, ELISA; read-out: The median inhibition concentration (IC50, nM) of IL-1β
Description: as §1, §2

T1 sequence (Q16539 whole entry): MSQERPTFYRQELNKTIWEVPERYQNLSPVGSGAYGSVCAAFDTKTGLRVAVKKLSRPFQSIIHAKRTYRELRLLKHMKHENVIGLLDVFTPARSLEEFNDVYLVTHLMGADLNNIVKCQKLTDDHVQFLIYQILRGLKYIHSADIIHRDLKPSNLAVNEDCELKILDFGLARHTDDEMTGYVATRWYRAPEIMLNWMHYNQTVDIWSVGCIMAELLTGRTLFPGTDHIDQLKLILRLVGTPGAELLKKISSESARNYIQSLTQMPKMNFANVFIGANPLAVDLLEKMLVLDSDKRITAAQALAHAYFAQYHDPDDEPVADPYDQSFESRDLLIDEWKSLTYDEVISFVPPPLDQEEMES

Question: Which results are given for Cc1ccccc1Nc1ccc(C(=O)c2sccc2Cl)c(Cl)c1 [Compound 101, 4-(2-tolylamino)-2-chlorophenyl 3-chloro-2-thienyl ketone]?
Answer: IC50 (TNF-α): 17 nM; IC50 (PMN-superoxide): 6.3 nM; IC50 (p38α MAP kinase): 93.3 nM; IC50 (IL-1β): 72 nM

Question: How did the IC50 (TNF-α) turn out when Cc1ccccc1C(=O)c1ccc(Nc2ccccc2N)cc1Cl [Ref. comp., 4-(2-aminophenylamino)-2-chloro-2′-methylbenzophenone, reference compound] was run?
Answer: 7.1 nM

Question: What about the IC50 (PMN-superoxide) of the same compound?
Answer: 5 nM

Question: And the IC50 (IL-1β)?
Answer: 13 nM
